The NIST ThermoML archive (doi:10.1021/acs.jced.5b00933)
± gives the expanded uncertainty stated by the source.

Experiment: mn = molality of the nth substance listed, in mol/kg
Details: 100 kPa, Liquid; for speed of sound: Frequency=3 MHz, Sing-around technique in a fixed-path interferometer; for mass density: Vibrating tube method

O=C([O-])CC(O)(CC(=O)[O-])C(=O)[O-].[K+].[K+].[K+] [potassium citrate] + O
speed of sound (288.15 K, m1 = 0.2): 1505.5 ± 1.2 m/s
speed of sound (288.15 K, m1 = 0.4): 1544.3 ± 1.3 m/s
speed of sound (288.15 K, m1 = 0.6): 1604 ± 1.3 m/s
mass density (288.15 K, m1 = 0.2): 1036.81 ± 4 kg/m3
mass density (288.15 K, m1 = 0.4): 1073.44 ± 4 kg/m3
mass density (288.15 K, m1 = 0.6): 1128.01 ± 4 kg/m3
speed of sound (298.15 K, m1 = 0.2): 1533 ± 1.2 m/s
speed of sound (298.15 K, m1 = 0.4): 1569.1 ± 1.3 m/s
speed of sound (298.15 K, m1 = 0.6): 1625.9 ± 1.3 m/s
mass density (298.15 K, m1 = 0.2): 1034.22 ± 4 kg/m3
mass density (298.15 K, m1 = 0.4): 1070.41 ± 4 kg/m3
mass density (298.15 K, m1 = 0.6): 1124.42 ± 4 kg/m3
speed of sound (308.15 K, m1 = 0.2): 1553.9 ± 1.2 m/s
speed of sound (308.15 K, m1 = 0.4): 1587.9 ± 1.3 m/s
speed of sound (308.15 K, m1 = 0.6): 1641.7 ± 1.3 m/s
mass density (308.15 K, m1 = 0.2): 1030.82 ± 4 kg/m3
mass density (308.15 K, m1 = 0.4): 1066.68 ± 4 kg/m3
mass density (308.15 K, m1 = 0.6): 1120.28 ± 4 kg/m3
speed of sound (318.15 K, m1 = 0.2): 1568.9 ± 1.2 m/s
speed of sound (318.15 K, m1 = 0.4): 1601.3 ± 1.3 m/s
speed of sound (318.15 K, m1 = 0.6): 1652.5 ± 1.3 m/s
mass density (318.15 K, m1 = 0.2): 1026.73 ± 4 kg/m3
mass density (318.15 K, m1 = 0.4): 1062.34 ± 4 kg/m3
mass density (318.15 K, m1 = 0.6): 1115.69 ± 4 kg/m3
